Inhibition and IC50 data for two molecules are collected here from ChEMBL document CHEMBL4229333, “Effects of rigidity on the selectivity of protein kinase inhibitors” (Eur J Med Chem, 2018).

The source made the active and inactive calls. The calls are words filed in the database; no cut-off is given here.

In experiment [1] the target is Phosphatidylinositol 4,5-bisphosphate 3-kinase catalytic subunit alpha isoform (Homo sapiens) (UniProt P42336). As to the kind of experiment: Inhibition of PI3K-alpha (unknown origin) at 1 uM by mobility shift microfluidics platform based assay relative to control.
Experiment [2] concerns the target Serine/threonine-protein kinase haspin (Homo sapiens) (UniProt Q8TF76). Kind of experiment: Inhibition of HASPIN (unknown origin) at 1 uM by mobility shift microfluidics platform based assay relative to control.
Experiment [3] concerns the target Discoidin domain-containing receptor 2 (Homo sapiens) (UniProt Q16832). As to the kind of experiment: Inhibition of DDR2 (unknown origin) at 1 uM by mobility shift microfluidics platform based assay relative to control.
Experiment [4] concerns the target Serine/threonine-protein kinase MARK1 (Homo sapiens) (UniProt Q9P0L2). Kind of experiment: Inhibition of MARK1 (unknown origin) at 1 uM by mobility shift microfluidics platform based assay relative to control.
Experiment [5] concerns the target Serine/threonine-protein kinase LATS1 (Homo sapiens) (UniProt O95835). Kind of experiment: Inhibition of LATS1 (unknown origin) at 1 uM by mobility shift microfluidics platform based assay relative to control.
Experiment [6] has as its target Protein kinase C zeta type (Homo sapiens) (UniProt Q05513). As to the kind of experiment: Inhibition of PKC-zeta (unknown origin) at 1 uM by mobility shift microfluidics platform based assay relative to control.
In the next experiment the target is Bcr/Abl fusion protein (Homo sapiens, UniProt P00519). Kind of experiment: Inhibition of BCR-ABL (unknown origin) expressed in mouse BA/F3 cells assessed as reduction in ABL phosphorylation at Y412 residue incubated for 3 hrs by immunoblotting assay. Format: cell-based. On the technique in general: A western blot detects proteins with antibodies after separation by electrophoresis.

The target in experiment [7] is Casein kinase I isoform gamma-3 (Homo sapiens) (UniProt Q9Y6M4). As to the kind of experiment: Inhibition of CK1-gamma3 (unknown origin) at 1 uM by mobility shift microfluidics platform based assay relative to control.
Experiment [8] has as its target Mitogen-activated protein kinase 12 (Homo sapiens) (UniProt P53778). As to the kind of experiment: Inhibition of P38-gamma (unknown origin) at 1 uM by mobility shift microfluidics platform based assay relative to control.
Experiment [9] has as its target Tyrosine-protein kinase Fer (Homo sapiens) (UniProt P16591). As to the kind of experiment: Inhibition of FER (unknown origin) at 1 uM by mobility shift microfluidics platform based assay relative to control.
The target of experiment [10] is Inhibitor of nuclear factor kappa-B kinase subunit epsilon (Homo sapiens) (UniProt Q14164). Kind of experiment: Inhibition of IKK-epsilon (unknown origin) at 1 uM by mobility shift microfluidics platform based assay relative to control.
For experiment [11], the target named is Mitogen-activated protein kinase 13 (Homo sapiens) (UniProt O15264). As to the kind of experiment: Inhibition of P38-delta (unknown origin) at 1 uM by mobility shift microfluidics platform based assay relative to control.
Experiment [12] concerns the target Tyrosine-protein kinase Srms (Homo sapiens) (UniProt Q9H3Y6). As to the kind of experiment: Inhibition of SRMS (unknown origin) at 1 uM by mobility shift microfluidics platform based assay relative to control.
Experiment [13] concerns the target Aurora kinase A (Homo sapiens) (UniProt O14965). As to the kind of experiment: Inhibition of AURORA-A (unknown origin) at 1 uM by mobility shift microfluidics platform based assay relative to control.
In experiment [14] the target is Serine/threonine-protein kinase PAK 4 (Homo sapiens) (UniProt O96013). Kind of experiment: Inhibition of PAK4 (unknown origin) at 1 uM by mobility shift microfluidics platform based assay relative to control.
In experiment [15] the target is Serine/threonine-protein kinase Nek9 (Homo sapiens) (UniProt Q8TD19). Kind of experiment: Inhibition of NEK9 (unknown origin) at 1 uM by mobility shift microfluidics platform based assay relative to control.
For experiment [16], the target named is T1, Tyrosine-protein kinase ABL1 (Homo sapiens, UniProt P00519). Kind of experiment: Inhibition of ABL (unknown origin) at 30 nM by phosphocellulose paper disk assay.
For experiment [17], the target named is Ribosomal protein S6 kinase alpha-5 (Homo sapiens) (UniProt O75582). As to the kind of experiment: Inhibition of MSK1 (unknown origin) at 1 uM by mobility shift microfluidics platform based assay relative to control.
Experiment [18] deals with T1, Tyrosine-protein kinase ABL1. As to the kind of experiment: Inhibition of ABL (unknown origin) by phosphocellulose paper disk assay.

Sequence of Serine/threonine-protein kinase Nek9 (Homo sapiens) (Q8TD19 whole entry): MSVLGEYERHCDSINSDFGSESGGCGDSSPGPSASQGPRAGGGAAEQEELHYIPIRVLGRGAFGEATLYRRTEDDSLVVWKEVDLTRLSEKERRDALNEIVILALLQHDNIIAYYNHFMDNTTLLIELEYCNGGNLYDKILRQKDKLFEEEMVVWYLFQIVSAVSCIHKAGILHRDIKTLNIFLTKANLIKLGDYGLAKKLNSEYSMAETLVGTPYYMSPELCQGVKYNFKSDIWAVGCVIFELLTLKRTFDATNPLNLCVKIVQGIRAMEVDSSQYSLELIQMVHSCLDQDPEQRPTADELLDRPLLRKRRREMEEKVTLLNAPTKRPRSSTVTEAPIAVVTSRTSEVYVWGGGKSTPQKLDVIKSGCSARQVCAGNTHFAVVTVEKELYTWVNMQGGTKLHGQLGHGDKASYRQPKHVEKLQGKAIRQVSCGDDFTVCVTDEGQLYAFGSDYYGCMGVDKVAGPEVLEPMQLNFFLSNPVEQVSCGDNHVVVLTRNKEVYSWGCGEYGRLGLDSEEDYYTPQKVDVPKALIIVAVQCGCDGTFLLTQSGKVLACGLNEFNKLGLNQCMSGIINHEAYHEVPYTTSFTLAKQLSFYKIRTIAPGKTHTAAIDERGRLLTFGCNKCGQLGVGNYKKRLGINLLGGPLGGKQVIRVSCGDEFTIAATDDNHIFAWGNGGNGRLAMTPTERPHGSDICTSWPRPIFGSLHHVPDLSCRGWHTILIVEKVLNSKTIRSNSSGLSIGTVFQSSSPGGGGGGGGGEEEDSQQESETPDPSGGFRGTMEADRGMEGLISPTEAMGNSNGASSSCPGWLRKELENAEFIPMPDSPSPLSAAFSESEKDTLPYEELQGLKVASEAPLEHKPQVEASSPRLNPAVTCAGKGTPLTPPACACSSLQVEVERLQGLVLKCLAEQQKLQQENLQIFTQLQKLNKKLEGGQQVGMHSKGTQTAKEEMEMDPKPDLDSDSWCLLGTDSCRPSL
Sequence of Serine/threonine-protein kinase LATS1 (Homo sapiens) (O95835 whole entry): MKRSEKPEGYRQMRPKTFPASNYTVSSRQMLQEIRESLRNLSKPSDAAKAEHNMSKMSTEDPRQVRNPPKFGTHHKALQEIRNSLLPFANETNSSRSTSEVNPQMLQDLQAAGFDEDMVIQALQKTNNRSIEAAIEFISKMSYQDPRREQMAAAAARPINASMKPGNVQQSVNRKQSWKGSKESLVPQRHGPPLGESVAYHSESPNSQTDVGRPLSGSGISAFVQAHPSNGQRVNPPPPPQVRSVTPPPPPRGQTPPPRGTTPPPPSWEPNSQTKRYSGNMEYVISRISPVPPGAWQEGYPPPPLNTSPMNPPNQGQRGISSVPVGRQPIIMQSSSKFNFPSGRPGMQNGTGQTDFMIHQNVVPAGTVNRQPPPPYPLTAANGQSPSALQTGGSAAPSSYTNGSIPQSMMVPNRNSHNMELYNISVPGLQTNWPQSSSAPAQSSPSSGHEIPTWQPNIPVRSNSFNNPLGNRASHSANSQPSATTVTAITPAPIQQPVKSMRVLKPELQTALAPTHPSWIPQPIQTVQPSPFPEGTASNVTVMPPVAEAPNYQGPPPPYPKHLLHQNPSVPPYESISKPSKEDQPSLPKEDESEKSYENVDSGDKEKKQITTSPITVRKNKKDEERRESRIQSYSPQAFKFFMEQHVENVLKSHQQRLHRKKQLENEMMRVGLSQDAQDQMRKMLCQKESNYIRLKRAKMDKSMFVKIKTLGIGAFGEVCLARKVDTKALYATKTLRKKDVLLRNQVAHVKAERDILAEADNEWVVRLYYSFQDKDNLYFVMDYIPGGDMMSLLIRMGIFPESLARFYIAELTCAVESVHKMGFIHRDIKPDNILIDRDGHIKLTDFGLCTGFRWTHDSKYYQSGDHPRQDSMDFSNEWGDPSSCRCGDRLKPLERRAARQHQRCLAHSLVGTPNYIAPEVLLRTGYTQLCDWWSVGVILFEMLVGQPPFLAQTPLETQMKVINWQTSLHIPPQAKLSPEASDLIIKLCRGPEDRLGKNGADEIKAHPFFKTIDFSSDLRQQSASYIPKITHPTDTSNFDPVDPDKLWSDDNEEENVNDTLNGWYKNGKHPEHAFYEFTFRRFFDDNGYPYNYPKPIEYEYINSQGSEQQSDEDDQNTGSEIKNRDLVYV
Sequence of Serine/threonine-protein kinase MARK1 (Homo sapiens) (Q9P0L2 whole entry, looked up): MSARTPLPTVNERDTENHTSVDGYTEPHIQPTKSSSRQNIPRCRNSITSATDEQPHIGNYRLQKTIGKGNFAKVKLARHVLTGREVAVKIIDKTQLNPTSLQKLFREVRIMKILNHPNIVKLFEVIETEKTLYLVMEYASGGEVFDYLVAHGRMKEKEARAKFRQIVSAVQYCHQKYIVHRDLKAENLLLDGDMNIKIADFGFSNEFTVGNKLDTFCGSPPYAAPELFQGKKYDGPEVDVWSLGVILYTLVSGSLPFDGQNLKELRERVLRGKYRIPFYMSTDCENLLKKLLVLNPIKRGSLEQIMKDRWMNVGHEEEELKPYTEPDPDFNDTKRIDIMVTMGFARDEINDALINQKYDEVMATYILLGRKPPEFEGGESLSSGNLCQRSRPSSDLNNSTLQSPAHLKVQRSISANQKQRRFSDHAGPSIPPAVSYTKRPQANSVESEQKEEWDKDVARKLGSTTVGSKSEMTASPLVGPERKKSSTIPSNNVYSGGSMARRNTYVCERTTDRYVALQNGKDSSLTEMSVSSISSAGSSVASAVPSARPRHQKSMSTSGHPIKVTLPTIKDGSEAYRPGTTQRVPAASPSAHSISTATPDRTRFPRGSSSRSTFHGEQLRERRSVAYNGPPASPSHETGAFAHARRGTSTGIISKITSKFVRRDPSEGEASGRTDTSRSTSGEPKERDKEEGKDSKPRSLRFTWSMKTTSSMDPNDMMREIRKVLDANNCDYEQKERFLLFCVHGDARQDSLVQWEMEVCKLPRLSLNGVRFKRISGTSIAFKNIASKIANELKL
Sequence of Tyrosine-protein kinase Fer (Homo sapiens) (P16591 whole entry, looked up): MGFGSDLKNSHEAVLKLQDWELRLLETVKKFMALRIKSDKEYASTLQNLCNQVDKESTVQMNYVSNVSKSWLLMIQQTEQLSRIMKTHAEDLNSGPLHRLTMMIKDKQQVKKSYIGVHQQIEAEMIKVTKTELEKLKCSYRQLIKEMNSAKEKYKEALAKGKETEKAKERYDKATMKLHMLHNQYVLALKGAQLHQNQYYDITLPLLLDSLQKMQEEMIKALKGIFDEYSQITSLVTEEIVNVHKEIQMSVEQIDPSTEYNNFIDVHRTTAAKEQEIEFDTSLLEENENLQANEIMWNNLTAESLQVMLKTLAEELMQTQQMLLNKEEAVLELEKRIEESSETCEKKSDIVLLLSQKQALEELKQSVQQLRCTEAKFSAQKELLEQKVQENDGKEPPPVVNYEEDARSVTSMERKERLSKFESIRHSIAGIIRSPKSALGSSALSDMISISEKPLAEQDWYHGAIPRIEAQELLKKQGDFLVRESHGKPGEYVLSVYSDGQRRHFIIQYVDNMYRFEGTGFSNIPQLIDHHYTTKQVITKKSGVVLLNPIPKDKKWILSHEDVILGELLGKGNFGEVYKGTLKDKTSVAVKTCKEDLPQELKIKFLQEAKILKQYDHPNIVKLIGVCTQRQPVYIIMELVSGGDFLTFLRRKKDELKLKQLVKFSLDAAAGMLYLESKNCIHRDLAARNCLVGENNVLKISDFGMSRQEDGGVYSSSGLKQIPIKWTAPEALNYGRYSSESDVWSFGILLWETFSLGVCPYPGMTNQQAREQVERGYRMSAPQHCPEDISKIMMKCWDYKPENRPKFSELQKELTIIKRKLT
Sequence of Inhibitor of nuclear factor kappa-B kinase subunit epsilon (Homo sapiens) (Q14164 whole entry): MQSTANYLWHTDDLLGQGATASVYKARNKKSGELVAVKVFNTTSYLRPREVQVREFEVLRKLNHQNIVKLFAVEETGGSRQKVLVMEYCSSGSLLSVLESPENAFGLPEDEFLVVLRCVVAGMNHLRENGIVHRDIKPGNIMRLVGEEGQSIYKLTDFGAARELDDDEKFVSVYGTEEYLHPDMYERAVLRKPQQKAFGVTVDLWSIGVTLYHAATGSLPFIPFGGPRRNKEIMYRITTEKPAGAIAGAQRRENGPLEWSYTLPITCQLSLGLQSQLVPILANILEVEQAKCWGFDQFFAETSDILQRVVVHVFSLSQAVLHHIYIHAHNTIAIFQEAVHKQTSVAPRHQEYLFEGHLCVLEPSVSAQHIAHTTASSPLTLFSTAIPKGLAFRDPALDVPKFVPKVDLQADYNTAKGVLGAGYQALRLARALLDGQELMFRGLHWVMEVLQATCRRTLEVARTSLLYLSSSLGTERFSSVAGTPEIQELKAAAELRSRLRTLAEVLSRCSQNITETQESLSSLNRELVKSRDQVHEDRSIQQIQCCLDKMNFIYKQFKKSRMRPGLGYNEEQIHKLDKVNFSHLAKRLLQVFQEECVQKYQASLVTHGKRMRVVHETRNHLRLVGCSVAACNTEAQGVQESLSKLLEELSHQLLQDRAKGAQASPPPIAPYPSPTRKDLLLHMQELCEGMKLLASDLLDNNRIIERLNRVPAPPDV
Sequence of Protein kinase C zeta type (Homo sapiens) (Q05513 whole entry, the tested form may be a part): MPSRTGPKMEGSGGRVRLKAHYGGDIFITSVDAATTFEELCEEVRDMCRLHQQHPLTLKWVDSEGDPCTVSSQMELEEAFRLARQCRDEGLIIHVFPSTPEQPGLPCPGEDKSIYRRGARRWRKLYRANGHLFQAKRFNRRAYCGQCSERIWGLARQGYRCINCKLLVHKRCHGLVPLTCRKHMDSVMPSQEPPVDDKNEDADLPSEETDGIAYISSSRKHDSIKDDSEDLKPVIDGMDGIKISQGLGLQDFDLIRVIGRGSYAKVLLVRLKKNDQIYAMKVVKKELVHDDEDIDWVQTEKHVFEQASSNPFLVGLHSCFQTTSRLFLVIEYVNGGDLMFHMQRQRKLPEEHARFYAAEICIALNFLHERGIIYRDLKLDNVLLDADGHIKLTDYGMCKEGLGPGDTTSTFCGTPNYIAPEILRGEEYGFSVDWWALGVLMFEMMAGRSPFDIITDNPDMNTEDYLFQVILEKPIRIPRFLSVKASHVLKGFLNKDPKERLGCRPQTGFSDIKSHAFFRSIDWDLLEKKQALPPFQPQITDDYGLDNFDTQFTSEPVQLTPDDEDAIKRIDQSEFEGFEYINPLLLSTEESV

`CC(C)n1nc(C#Cc2cccc(NC(=O)c3cccc(C(F)(F)F)c3)c2)c2c(N)ncnc21`: the inhibition (in general, the drop in the measured response relative to a control, in per cent) in [1] was 36%; in experiment [2], 5%; in experiment [3] it was 93%; in [4], 1%; in [5], -4%; in experiment [6] it was 2%. The inhibition came to 2% in experiment [7]; 1% in experiment [8]; 40% in experiment [9]; 17% in [10]; 0% in experiment [11]; 55% in [12]. Moreover, the inhibition was found to be 90% in [13], 0% in [14] and 2% in experiment [15]. Besides, the IC50 (in general, the concentration at which inhibition is half-maximal) on Bcr/Abl fusion protein amounted to 7.5 nM.

`CC(C)n1nc(C#Cc2cccc3cc(-c4cccc(C(F)(F)F)c4)ncc23)c2c(N)ncnc21`: the inhibition in experiment [1] is -8%; in [2] it was 1%; in experiment [3], 96%; in [4] it was -2%; in [5], 3%; in experiment [6] it was 4%. The inhibition was determined as 5% in [17]; 0% in [8]; 12% in experiment [9]; 8% in experiment [10]; 2% in experiment [11]; 20% in [12]. Also, the inhibition in experiment [13] is 29%; in [14] it was 2%; in experiment [15], -1%. In addition, the inhibition entry in experiment [16] is “inactive”. In addition, in [18], the IC50 turned out to be 3 nM.
